In US7728146B2, “Enzyme inhibitors” (Probiodrug AG, priority 2006, dated 2010):
Like-named read-outs stand apart in the source and are kept apart here.

What was measured:
[1] = biological target: dipeptidyl peptidase (DP IV) (UniProt P27487); test: Determination of IC50 against DP IV (hydrolysis of Gly-Pro-pNA); format: biochemical, porcine kidney or recombinant human; conditions: compounds obtained by preparative synthesis
Procedure, shortened: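 Porcine kidney or recombinant human DP IV (about 40–50 μU/ml) in HEPES pH 7.6 (I=0.32) with Gly-Pro-pNA at room temperature, 5% DMSO, 11 twofold dilutions from 100 μM final. pNA release at 405 nm over ~18 min; slopes give residual activity versus solvent, IC50 by 4-parameter fit.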

DPII = DPII (Homo sapiens, UniProt Q9UHL4); test: DPII assay; format: biochemical; conditions: for Selectivity DPII(IC50)/DPIV(Ki): ratio IC50 DPII / Ki DP IV
Protocol: Determination of IC50 values for DPII and DP9 are done similarly as described for DP IV.
For DPII instead of the HEPES buffer a 0.2 M sodium acetate buffer pH 5.5 is used. As substrate Gly-Pro-AMC is used in a final concentration of 1 mM.

[2] = Bioavailability studies (pharmacokinetics after oral and intraarterial administration); format: in vivo, rat; conditions: for AUC / AUC(0-inf) / AUC(0-t) / Cmax / Tmax / AUC/Dose / half-life: male Wistar rats; for AUC: cross-over design; for AUC(0-inf) / AUC(0-t) / Cmax / Tmax / AUC/Dose / half-life: hydrochloride salt, Mean ± SD; for bioavailability: calculated from Mean AUC p.o. / Mean AUC i.a., read-out: F (bioavailability)
Protocol: Male Wistar rats (N=25; Crl:WI) with a body weight ranging between 300 and 350 g were purchased from Harlan Winkelmann GmbH (Borchen, Germany).
All studycompounds were used in the form of the hydrochloride salt.
One week after adaptation to the housing conditions, catheters were implanted into the carotid artery of the rats under general anaesthesia (i.p. injection of 0.25 mL/kg b.w. Rompun® [2%], BayerVital, Germany and 0.5 mL/kg b.w. Ketamin 10, Atarost GmbH & Co., Twistringen, Germany). The animals were allowed to recover for one week. The catheters were flushed with heparin-saline (100 IU/mL) three times per week.
After overnight fast, the inhibitors were administered the oral route via a feeding tube (15 g, 75 mm; Fine Science Tools, Heidelberg, Germany) and the intraarterial route via the arterial catheter. In case of intraarterial administration, the catheter was immediately flushed with 30 μL saline.
The animals were treated by a single oral dose of 3 mg/kg (5 mL/kg b.w.; treatment A) followed by a wash-out period of at least 3 days before intraarterial administration of 3 mg/kg (2 mL/kg b.w.; treatment B). The compounds were dissolved in saline to a final concentration adequate for an application of 3 mg/kg b.w.
Heparinized blood samples of 170 μL were collected in ice cooled sample tubes at −5, 0 (before medication) and at 5, 15, 30, 45, 60, 120, 240, 360 and 480 min. Blood samples in sample tubes were put shortly on ice and centrifuged thereafter (12,000 rpm for 2 min).
Plasma levels of the DP IV inhibitors were determined by measurement of plasma DP IV activity under standardized conditions using Gly-Pro-pNA as substrate. Plasma levels were calculated from the degree of inhibition using the known inhibition constants and the equation for competitive inhibition.
For determination of plasma DP IV activity, 50 μL sample in an appropriate dilution were incubated with 100 μL Hepes buffer (0.102 M, pH 7.6, I=0.319 M by KCl) and 50 μL water in a 96 well plate. Reaction was started by addition of 50 μL of a 2 mM Gly-Pro-pNA solution. Release of pNA was monitored for 20 min at 30° C. and 405 nm using a GeniousPro plate reader (Tecan). DP IV activity (deltaAbsorbtion/min) was calculated by linear regression of the time response curve. From this activity the concentration of the inhibitor was calculated using the following equation derived from the inhibitor equation for competitive inhibition.
Pharmacokinetic analyses (parameters of the individual PK profiles) and descriptive statistics were carried out using WinNonlin (Version 4.0.1, Professional). Based on plasma concentration data of inhibitors, the following model-independent pharmacokinetic variables were determined:
AUC(0-inf), AUC(0-t), Cmax, tmax, terminal half-life (t1/2) and bioavailability (F).
F (in %) was calculated from the ratio of observed AUC upon oral route of administration to the AUC upon intraarterial administration.

[3] = Wistar (Crl:WI), rat, plasma, po, 3 mg/kg p.o., read-out: Mean AUC p.o.
[4] = Wistar (Crl:WI), rat, plasma, 3 mg/kg i.a., read-out: Mean AUC i.a.
[5] = Wistar (Crl:WI), rat, plasma, intraarterial 3 mg/kg, N = 4-6
[6] = Wistar (Crl:WI), rat, plasma, oral 3 mg/kg, N = 5
[7] = male, Wistar (Crl:WI), rat, plasma, 3 mg/kg, intraarterial 3 mg/kg, N = 4-6, read-out: Half-life (converted)
[8] = male, Wistar (Crl:WI), rat, plasma, po, 3 mg/kg, oral 3 mg/kg, N = 5, read-out: Half-life (converted)
[9] = male, Wistar (Crl:WI), rat, plasma, po, 3 mg/kg
[10] = sodium acetate buffer pH 5.5, Gly-Pro-AMC 1 mM

Row | SMILES | IC50 [1] [nM] | Selectivity DPII(IC50)/DPIV(Ki) (DPII) | IC50 (DPII; values >1e−4 are extrapolated values) [nM] | AUC [2, 3] [ng·h/mL] | AUC [2, 4] [ng·h/mL] | AUC(0-inf) [2, 5] [ng·h/mL] | AUC(0-t) [2, 5] [ng·h/mL] | Cmax [2, 5] [ng/mL] | AUC(0-inf) [2, 6] [ng·h/mL] | AUC(0-t) [2, 6] [ng·h/mL] | Cmax [2, 6] [ng/mL] | Tmax [2, 6] [h] | AUC/Dose ([2]; intraarterial 3 mg/kg, N = 4-6) [kg·µg·h/mL/mg] | AUC/Dose ([2]; oral 3 mg/kg, N = 5) [kg·µg·h/mL/mg] | half-life [2, 7] [h] | half-life [2, 8] [h] | bioavailability [2, 9] [%] | Ki (DPII) [nM] | IC50 (DPII; [10]) [nM] | half-life ([2]; intraarterial 3 mg/kg, N = 4-6) [h]
1 | NCc1c(-c2ccc(Cl)cc2Cl)ncn1Cc1cccnc1 [Example 121b, (4-(2,4-dichlorophenyl)-1-((pyridin-3-yl)methyl)-1H-imidazol-5-yl)methanamine] | 83 | 41,216 | 122000 | 230 | 440 | 630 ± 350 | 440 ± 215 | 400 ± 120 | 350 ± 207 | 230 ± 206 | 110 ± 51 | 0.45 ± 0.274 | 0.21 ± 0.115 | 0.12 ± 0.069 | 1.98 ± 0.994 | 3.26 ± 3.87 | 53 | – | – | –
2 | NCc1c(-c2ccc(Cl)cc2Cl)ncn1Cc1ccsc1 [Example 130b, (4-(2,4-dichlorophenyl)-1-((thiophen-3-yl)methyl)-1H-imidazol-5-yl)methanamine] | 62 | 186 | – | 1270 | 1680 | 2470 ± 1440 | 1680 ± 516 | 1160 ± 470 | 2330 ± 1180 | 1270 ± 618 | 300 | 0.55 ± 0.326 | – | 0.78 ± 0.394 | 5.5 | 5.49 ± 1.52 | 76 | 3840 | 1430 | 4.00 ± 2.308
3 | NCc1c(-c2ccc(Cl)cc2Cl)ncn1Cc1ccccn1 [Example 39b] | 59 | >176,056 | – | 140 | 330 | 410 ± 191 | 330 ± 148 | 280 ± 51 | 290 ± 141 | 140 ± 75 | 80 | 0.4 ± 0.224 | – | 0.10 ± 0.047 | 1.6 | 3.18 ± 2.13 | 43 | – | > 100000 | 1.57 ± 1.138
4 | NCc1c(-c2ccc(Cl)cc2Cl)ncn1Cc1ccccc1 [Example 24b, (1-benzyl-4-(2,4-dichlorophenyl)-1H-imidazol-5-yl)methanamine] | 123 | 6,329 | – | 390 | 510 | 640 ± 205 | 510 ± 151 | 440 ± 73 | 650 ± 314 | 390 ± 149 | 130 ± 36 | 0.75 ± 0.177 | 0.18 ± 0.093 | 0.22 ± 0.105 | 2.94 ± 1.39 | 4.83 ± 4.08 | 76 | – | 30000 | –
